# Legend:
# [1] = tested on: poinsettia, wild (wild poinsettia, Euphorbia heterophylla); experiment: Test F pre-/postemergence: poinsettia, wild; assay type: in vivo
# Description: Seeds of plant species selected from corn (Zea mays), soybean (Glycine max), velvetleaf (Abutilon theophrasti), lambsquarters (Chenopodium album), poinsettia, wild (wild poinsettia, Euphorbia heterophylla), pigweed, palmer (palmer pigweed, Amaranthus palmeri), waterhemp (common waterhemp, Amaranthus rudis), surinam grass (Brachiaria decumbens), crabgrass, Brazil (Brazilian crabgrass, Digitaria horizontalis), panicum, fall (fall panicum Panicum dichotomiflorum), crabgrass, large (large crabgrass, Digitaria sanguinalis), foxtail, giant (giant foxtail, Setaria faberii), foxtail, green (green foxtail Setaria viridis), goosegrass (Eleusine indica), ragweed (common ragweed, Ambrosia elatior), barnyardgrass (Echinochloa crus-galli), sandbur (southern sandbur, Cenchrus echinatus), arrowleaf sida (Sida rhombifolia), ryegrass, Italian (Italian ryegrass, Lolium multiflorum), dayflower, VA (Virginia (VA) dayflower, Commelina virginica), field bindweed (Convolvulus arvensis), cocklebur (common cocklebur, Xanthium strumarium), morningglory (Ipomoea coccinea), nightshade (eastern black nightshade, Solanum ptycanthum), kochia (Kochia scoparia), nutsedge, yellow (yellow nutsedge, Cyperus esculentus), johnsongrass (Sorghum halepense), smartweed (ladysthumb smartweed, Polygonum persicaria), and beggarticks (hairy beggarticks, Bidens pilosa), were planted into a silt loam soil and treated preemergence with test chemicals formulated in a non-phytotoxic solvent mixture which included a surfactant. At the same time, plants selected from these crop and weed species and also pigweed (Amaranthus retroflexus), waterhemp_RES1 (ALS/Triazine resistant common waterhemp, Amaranthus rudis) and waterhemp_RES2 (ALS/HPPD resistant common waterhemp, Amaranthus rudis) were planted in pots containing a planting medium comprising spaghnum peat moss, vermiculite, wetting agent and starter nutrients treated with postemergence applications of some of the test chemicals formulated in the same manner. Plants ranged in height from 2 to 18 cm for postemergence treatments (1- to 4-leaf stage).
# (§1) Treated plants and controls were maintained in a greenhouse for 14 to 21 days, after which time all species were compared to controls and visually evaluated. Plant response ratings, summarized in Table E, are based on a scale of 0 to 100 where 0 is no effect and 100 is complete control. A dash (-) response means no test result.
# [2] = tested on: Barnyardgrass; experiment: Test C postemergence: barnyardgrass; assay type: in vivo, Echinochloa crus-galli
# Description: (§2) At the same time, plants selected from these crop and weed species and also barley (winter barley, Hordeum vulgare), canarygrass (Phalaris minor), chickweed (common chickweed, Stellaria media) windgrass (Apera spica-venti) and deadnettle (henbit deadnettle, Lamium amplexicaule) were planted in pots containing Redi-Earth® planting medium (Scotts Company, 14111 Scottslawn Road, Marysville, Ohio 43041) comprising spaghnum peat moss, vermiculite, wetting agent and starter nutrients and treated with postemergence applications of test chemicals formulated in the same manner. Plants ranged in height from 2 to 18 cm (1- to 4-leaf stage) for postemergence treatments.
# as §1, with “13” for “14”, “15” for “21”, “C,” for “E,”
# [3] = tested on: Waterhemp; experiment: Test C postemergence: waterhemp; assay type: in vivo
# Description: as §2
# as §1, with “13” for “14”, “15” for “21”, “C,” for “E,”
# [4] = tested on: Barnyardgrass; experiment: Test C preemergence: barnyardgrass; assay type: in vivo, Echinochloa crus-galli
# Description: Seeds of plant species selected from blackgrass (Alopecurus myosuroides), bromegrass, downy (downy bromegrass, Bromus tectorum), foxtail, green (green foxtail, Setaria viridis), ryegrass, Italian (Italian ryegrass, Lolium multiflorum), winter wheat (Triticum aestivum), wild oat (Avena fatua), galium (catchweed bedstraw, Galium aparine), bermudagrass (Cynodon dactylon), surinam grass (Brachiaria decumbens), cocklebur (common cocklebur, Xanthium strumarium), corn (Zea mays), large crabgrass (Digitaria sanguinalis), woolly cupgrass (Eriochloa villosa), foxtail, giant (giant foxtail, Setaria faberii), goosegrass (Eleusine indica), johnsongrass (Sorghum halepense), kochia (Kochia scoparia), lambsquarters (Chenopodium album), morningglory (Ipomoea coccinea), nightshade (eastern black nightshade, Solanum ptycanthum), nutsedge, yellow (yellow nutsedge, Cyperus esculentus), pigweed (Amaranthus retroflexus), ragweed (common ragweed, Ambrosia elation), soybean (Glycine max), common (oilseed) sunflower (Helianthus annuus), Russian thistle (Salsola kali) and velvetleaf (Abutilon theophrasti) were planted into a blend of loam soil and sand and treated preemergence with test chemicals formulated in a non-phytotoxic solvent mixture which included a surfactant.
# as §1, with “13” for “14”, “15” for “21”, “C,” for “E,”
# [5] = tested on: velvetleaf (Abutilon theophrasti); experiment: Test E pre-/postemergence: velvetleaf; assay type: in vivo; conditions: Preemergence, scale 0 to 100
# Description: (§3) Seeds of plant species selected from corn (Zea mays), soybean (Glycine max), velvetleaf (Abutilon theophrasti), lambsquarters (Chenopodium album), poinsettia, wild (wild poinsettia, Euphorbia heterophylla), pigweed, palmer (palmer pigweed, Amaranthus palmeri), waterhemp (common waterhemp, Amaranthus rudis), smartweed (ladysthumb smartweed, Polygonum persicaria), surinam grass (Brachiaria decumbens), crabgrass, large (large crabgrass, Digitaria sanguinalis), crabgrass, Brazil (Brazilian crabgrass, Digitaria horizontalis), panicum, fall (fall panicum, Panicum dichotomiflorum), foxtail, giant (giant foxtail, Setaria faberii), foxtail, green (green foxtail, Setaria viridis), goosegrass (Eleusine indica), johnsongrass (Sorghum halepense), ragweed (common ragweed, Ambrosia elation), barnyardgrass (Echinochloa crus-galli), sandbur (southern sandbur, Cenchrus echinatus), arrowleaf sida (Sida rhombifolia), ryegrass, Italian (Italian ryegrass, Lolium multiflorum), dayflower, (VA) (Virginia dayflower, Commelina virginica), field bindweed (Convolvulus arvensis), cocklebur (common cocklebur, Xanthium strumarium), morningglory (Ipomoea coccinea), nightshade (eastern black nightshade, Solanum ptycanthum), kochia (Kochia scoparia), nutsedge, yellow (yellow nutsedge, Cyperus esculentus) and beggarticks (hairy beggarticks, Bidens pilosa) were planted into a silt loam soil and treated preemergence with test chemicals formulated in a non-phytotoxic solvent mixture which included a surfactant. At the same time, plants selected from these crop and weed species were planted in pots containing a growing medium comprising spaghnum peat moss, vermiculite, wetting agent and starter nutrients and treated with postemergence applications of some of the test chemicals formulated in the same manner. Plants ranged in height from 2 to 18 cm for postemergence treatments (1- to 4-leaf stage).
# as §1
# [6] = tested on: foxtail, green (green foxtail, Setaria viridis); experiment: Test E pre-/postemergence: foxtail, green; assay type: in vivo; conditions: Preemergence, scale 0 to 100
# Description: as §3, §1
# [7] = Preemergence, 16 g ai/ha, scale 0 to 100 (0 no effect, 100 complete control)
# [8] = Preemergence, 31 g ai/ha, scale 0 to 100 (0 no effect, 100 complete control)
# [9] = 31 g ai/ha, scale 0 to 100 (0 no effect, 100 complete control)
# [10] = 62 g ai/ha, scale 0 to 100 (0 no effect, 100 complete control)
# [11] = 31 g ai/ha, scale of 0 to 100, 0 is no effect, 100 is complete control
# [12] = 62 g ai/ha, scale of 0 to 100, 0 is no effect, 100 is complete control
# [13] = 125 g ai/ha, scale 0 to 100, 0 no effect, 100 complete control
# [14] = 31 g ai/ha, scale 0 (no effect) to 100 (complete control)
# [15] = Preemergence, 125 g ai/ha, scale 0 to 100
Structure (SMILES),"Plant response rating, Poinsettia, Wild [1, 7]","Plant response rating, Poinsettia, Wild [1, 8]","Plant response rating, Barnyardgrass [2, 9]","Plant response rating, Barnyardgrass [2, 10]","Plant response rating, Barnyardgrass ([2]; 250 g ai/ha, scale 0 to 100)","Plant response rating, Waterhemp [3, 10]","Plant response rating, Waterhemp ([3]; 250 g ai/ha, scale 0 to 100)","Plant response rating, Barnyardgrass [4, 12]","Plant response rating, Barnyardgrass [4, 13]","Plant response rating, Barnyardgrass [4, 14]",Plant response rating: Velvetleaf ([5]; 16 g ai/ha),Plant response rating: Velvetleaf ([5]; 31 g ai/ha),Plant response rating: Velvetleaf ([5]; 62 g ai/ha),Plant response rating: Velvetleaf ([5]; 125 g ai/ha),"Plant response rating: Foxtail, Green ([6]; 16 g ai/ha)","Plant response rating: Foxtail, Green ([6]; 31 g ai/ha)","Plant response rating: Foxtail, Green ([6]; 62 g ai/ha)","Plant response rating: Foxtail, Green ([6]; 125 g ai/ha)",also measured
Cc1nn(-c2ccc(C(F)(F)F)c(F)c2)nc1Cc1ccnc(C(F)(F)F)c1 [Compound 162],0,10,20,65,95,100,100,100,100,–,–,–,–,–,–,–,–,–,"Plant response rating, Poinsettia, Wild ([1]; Postemergence, 4 g ai/ha, scale 0 to 100): 15; Plant response rating, Poinsettia, Wild ([1]; Postemergence, 8 g ai/ha, scale 0 to 100): 30; Plant response rating, Poinsettia, Wild ([1]; Postemergence, 16 g ai/ha, scale 0 to 100): 60; Plant response rating, Poinsettia, Wild ([1]; Postemergence, 31 g ai/ha, scale 0 to 100): 75; Plant response rating, Poinsettia, Wild ([1]; Postemergence, 62 g ai/ha, scale 0 to 100): 80; Plant response rating, Poinsettia, Wild ([1]; Preemergence, 4 g ai/ha, scale 0 to 100, 0 no effect, 100 complete control): 0; Plant response rating, Poinsettia, Wild ([1]; Preemergence, 8 g ai/ha, scale 0 to 100, 0 no effect, 100 complete control): 0; Plant response rating, Waterhemp [3, 9]: 98; Plant response rating, Barnyardgrass [4, 11]: 98"
CCCc1nn(-c2ccc(C(F)(F)F)c(F)c2)nc1Oc1ccnc(C(F)(F)F)c1 [Compound 185],–,–,30,35,80,90,–,98,100,55,–,–,–,–,–,–,–,–,–
"Cc1nn(-c2ccc(C(F)(F)F)cc2)nc1Cc1ccnc(C(F)(F)F)c1 [Compound 47, 4-[[5-methyl-2-[4-(trifluoromethyl)phenyl]-2H-1,2,3-triazol-4-yl]methyl]-2-(trifluoromethyl)pyridine]",–,–,–,–,–,–,–,–,–,–,30,40,40,75,85,100,100,100,"Plant response rating: Velvetleaf ([5]; 250 g ai/ha): 100; Plant response rating: Foxtail, Green ([6]; 250 g ai/ha): 100"
CCCc1nn(-c2ccc(F)cc2)nc1Cc1ccnc(C(F)(F)F)c1 [Compound 153],0,25,20,35,75,98,98,90,100,–,–,–,–,–,–,–,–,–,"Plant response rating, Poinsettia, Wild [1, 15]: 70; Plant response rating, Poinsettia, Wild ([1]; Preemergence, 250 g ai/ha, scale 0 to 100): 98; Plant response rating, Waterhemp [3, 9]: 98; Plant response rating, Barnyardgrass [4, 11]: 90"
CCOc1nn(-c2ccc(Br)cc2)nc1Cc1ccnc(C(F)(F)F)c1 [Compound 189],–,–,–,–,–,–,–,98,100,45,–,–,–,–,–,–,–,–,"Plant response rating, Barnyardgrass ([4]; 16 g ai/ha, scale 0 (no effect) to 100 (complete control)): 25"
CCc1nn(-c2ccc(F)cc2)nc1Oc1ccnc(C(F)(F)F)c1 [Compound 166],–,–,10,25,60,–,98,75,98,5,–,–,–,–,–,–,–,–,–
"Cc1nn(-c2ccc(F)cc2)nc1Oc1ccnc(C(F)(F)F)c1 [Compound 129, 4-[[2-(4-fluorophenyl)-5-methyl-2H-1,2,3-triazol-4-yl]oxy]-2-(trifluoromethyl)pyridine]",–,–,–,–,–,–,–,–,–,–,0,0,20,25,60,100,100,100,"Plant response rating: Velvetleaf ([5]; 8 g ai/ha): 0; Plant response rating: Foxtail, Green ([6]; 8 g ai/ha): 0"
"Cc1nn(-c2ccc(F)cc2)nc1Cc1ccnc(C(F)(F)F)c1 [Compound 16, 4-[[2-(4-fluorophenyl)-5-methyl-2H-1,2,3-triazol-4-yl]methyl]-2-(trifluoromethyl)pyridine]",–,–,–,–,–,–,–,–,–,–,20,30,80,80,90,90,100,100,"Plant response rating: Velvetleaf ([5]; 8 g ai/ha): 0; Plant response rating: Foxtail, Green ([6]; 8 g ai/ha): 60"
Fc1ccc(-n2nc(Cc3ccnc(C(F)(F)F)c3)c(OCC(F)(F)F)n2)cc1 [Compound 142],0,10,–,–,–,–,–,–,–,–,–,–,–,–,–,–,–,–,"Plant response rating, Poinsettia, Wild [1, 15]: 70"

# Source: patent US9302999B2, “Substituted triazoles as herbicides” (E. I. DU PONT DE NEMOURS AND COMPANY, priority 2012, dated 2016)
